Calls of active or inactive are those of the source. The rule behind the calls is not given here.
test system: Hepatocyte; test: not given; settings: Rattus norvegicus

Structure (SMILES)	LC50
COc1ccc(C(c2cc3ccc(OC)cc3o2)n2ccnc2)cc1 (stereo not drawn)	inactive
COc1ccc2cc(C(O)(c3ccc(F)cc3)c3cccnc3)oc2c1 (stereo not drawn)	inactive
COc1ccc(C(c2cc3ccc(OC)cc3o2)n2cncn2)cc1 (stereo not drawn)	inactive
COc1ccc2cc(C(c3ccc(F)cc3)n3cncn3)oc2c1 (stereo not drawn)	inactive
COc1ccc(C(O)(c2cccnc2)c2cc3ccc(OC)cc3o2)cc1 (stereo not drawn)	inactive
COc1ccc2cc(C(c3ccc(Cl)cc3)n3cncn3)oc2c1 (stereo not drawn)	inactive

test system: Hepatocyte; test: cells; type: functional; settings: Rattus norvegicus, 24 h, read-out: LC50 (the source's name)

Structure (SMILES)	CC50 [µM]
COc1ccc(C(c2cc3ccc(OC)cc3o2)n2ccnc2)cc1 (stereo not drawn)	50
COc1ccc2cc(C(O)(c3ccc(F)cc3)c3cccnc3)oc2c1 (stereo not drawn)	> 100
COc1ccc(C(c2cc3ccc(OC)cc3o2)n2cncn2)cc1 (stereo not drawn)	90
CC(C)(C#N)c1cc(Cn2cncn2)cc(C(C)(C)C#N)c1 [ANASTROZOLE]	> 200
COc1ccc2cc(C(c3ccc(F)cc3)n3cncn3)oc2c1 (stereo not drawn)	100
COc1ccc(C(O)(c2cccnc2)c2cc3ccc(OC)cc3o2)cc1 (stereo not drawn)	100
COc1ccc2cc(C(c3ccc(Cl)cc3)n3cncn3)oc2c1 (stereo not drawn)	50
